The test system of assay [1] is human bone marrow derived-mesenchymal stem cells (hBMMSC). As to the kind of experiment: Osteogenesis modulating activity assay by test compound alone (ALP activity). Conditions: Homo sapiens, 168 h; hBMMSC, 20 μM test compound alone, six to seven days; read-out: Osteogenesis: fold change of ALP activity compared with DMSO control. It is filed as cell-based. As to the method: Cell culture: Human bone marrow derived-mesenchymal stem cells (hBMMSC) were isolated from normal subjects.
Osteogenesis modulating activity assay by test compound alone: hBMMSC were cultivated in the culture medium and cells were seeded into 96-well culture plates and test compounds were dissolved in DMSO and diluted with culture media (final 0.01% DMSO) and added into the media (final concentration of test compound was 20 μM) and cultured in the CO2 incubator (37° C., 5% CO2). Culture medium was changed every two days with fresh one and compound was treated again whenever medium was changed. Six to seven days after incubation, Alkaline phosphatase activity of cell lysates was measured by colorimetry. For the determination of mineralization within the cells, Von Kossa staining or Alizarin Red S assay was performed 10-14 days after incubation.

Assay [2] has as its system Mouse embryonic stem (ES) cells, TC1. As to the kind of experiment: Cardiomyogenesis modulating activity assay (alpha-MHC promoter EGFP, embryoid bodies, FACS/fluorescence microscopy). It is filed as cell-based. Conditions: embryoid bodies treated for 5 days, FACS. As for the experimental part:
a. Cell culture: Mouse embryonic stem (ES) cells, TC1 derived from 129/S6 strain were cultured on irradiated feeder layer in the culture medium which is high-glucose DMEM (Gibco) BRL, Germany) supplemented with 15% FBS (Hyclone), 0.1 mM beta-mercaptoethanol, […] sodium pyruvate, 1 mM L-glutamine and 1× non-essential amino acids.
b. Establishment of alpha-MHC stably transformed ES cell line: A construct (FIG. 8) containing 1.8 kb promoter sequence of the mouse alpha-MHC gene between EcoRI and SalI sites of pEGFP-1 (Clontech Laboratories, Inc, CA, USA) was linearized at XhoI site, and was introduced into mouse ES cells, TC1, using the Gene Pulser II (BioRad, MA). A selection medium containing G418 was applied for two weeks from 24 hours after electroporation. The selected ES cell clones were harvested and expanded on the feeder cell layer. The green fluorescence-expressing clones when differentiated into cardiomyocytes were used in this experiment.
c. Cardiomyogenesis modulating activity assay: Embryoid body (EB) was formed by hanging drop culture using about a number of 600 (six hundred) ES cells for two days and it was further expanded by culturing in suspension condition on a Petri-dish for another two days. Then each EB was plated on a well of 96 well culture plates. Test compounds were dissolved in DMSO and diluted with culture media (final 0.05% DMSO) and EB was treated with test compound for 5 days. Culture medium was changed every three days after plating. Expression level of EGFP was measured with FACS (Beckman). For FACS analysis, differentiating cells were dissociated with trypsin. For the determination of the extent of differentiation, EB was observed and photographed with an inverted fluorescence microscope (Zeiss, Germany). Number of beating EBs was counted under the microscope and recorded once daily.

For `COc1ccc(CN2C[C@H]3N(C(=O)CN(C)N3C(=O)NCc3ccccc3)[C@@H](c3ccccc3)C2=O)cc1` [#25], the fold induction at 20 µM in assay [1] came to 0.6. The “Cardiomyogenesis: fold change of EGFP expression level compared with DMSO control” value (“Cardiomyogenesis: fold change” below) in assay [2] is 1.78 fold.
With `C=CCOC(=O)NCCC[C@@H]1C(=O)N(Cc2ccc(OC)cc2)CC2N1C(=O)CN(C)N2C(=O)NCc1ccccc1` (some centres unmarked) [#26], in assay [1], the fold induction at 20 µM was determined as 1.01. Further, the “Cardiomyogenesis: fold change” value in assay [2] was 1.74 fold.
The like results for `CN1CC(=O)N2C(Cc3ccc(OCc4ccccc4)cc3)C(=O)N(CCCc3ccccc3)CC2N1C(=O)NCc1ccccc1` (centres unmarked) [#27] were, in that order, 0.96 and 0.52 fold.
The like results for `CN1CC(=O)N2[C@@H](CC3CCCCC3)C(=O)N(CCCc3ccccc3)C[C@@H]2N1C(=O)NCc1ccccc1` [#28] were, in that order, 0.26 and 1.23 fold.
In the same order, the values of `CN1CC(=O)N2[C@@H](Cc3ccc(Cl)cc3)C(=O)N(CCCc3ccccc3)C[C@@H]2N1C(=O)NCc1ccccc1` [#29] are 0.91 and 1.71 fold.
As for `CCCCN1C[C@H]2N(C(=O)CN(C)N2C(=O)NCc2ccccc2)[C@@H](Cc2ccc(Cl)cc2)C1=O` [#30], in assay [1], the fold induction at 20 µM was 1.12. Besides, the “Cardiomyogenesis: fold change” value in assay [2] was found to be 1.75 fold.
The like results for `CN1CC(=O)N2[C@H](Cc3ccccc3)C(=O)N(CCc3ccccc3)C[C@H]2N1C(=O)NCc1ccccc1` [#31] were, in that order, 1 and 1.10 fold.
As to `CN1CC(=O)N2[C@@H](COCc3ccccc3)C(=O)N(CCc3ccccc3)C[C@@H]2N1C(=O)NCc1ccccc1` [#32], the fold induction at 20 µM in assay [1] was 0.94. For the same compound, in assay [2], the “Cardiomyogenesis: fold change” value is recorded as 0.95 fold.
The like results for `CN1CC(=O)N2[C@@H](CCc3ccccc3)C(=O)N(CCc3ccccc3)C[C@@H]2N1C(=O)NCc1ccccc1` [#33] were, in that order, 1.85 and 0.28 fold.
The like results for `COc1ccc(C[C@H]2C(=O)N(CCc3ccccc3)C[C@H]3N2C(=O)CN(C)N3C(=O)NCc2ccccc2)cc1` [#34] were, in that order, 1.03 and 1.71 fold.
On to `CN1CC(=O)N2[C@@H](Cc3ccc(OCc4ccccc4)cc3)C(=O)N(CCc3ccccc3)C[C@@H]2N1C(=O)NCc1ccccc1` [#35], for which the fold induction at 20 µM in assay [1] stood at 0.94. Further, in assay [2], the “Cardiomyogenesis: fold change” value turned out to be 1.03 fold.
The like results for `Cc1ccc(C[C@H]2C(=O)N(CCc3ccccc3)C[C@H]3N2C(=O)CN(C)N3C(=O)NCc2ccccc2)cc1` [#36] were, in that order, 1.55 and 0.54 fold.
The like results for `CN1CC(=O)N2[C@@H](CC3CCCCC3)C(=O)N(CCc3ccccc3)C[C@@H]2N1C(=O)NCc1ccccc1` [#37] were, in that order, 0.95 and 0.98 fold.
On to `CN1CC(=O)N2[C@@H](Cc3ccc(F)cc3)C(=O)N(CCc3ccccc3)C[C@@H]2N1C(=O)NCc1ccccc1` [#38], for which, in assay [1], the fold induction at 20 µM came to 0.48. The “Cardiomyogenesis: fold change” value in assay [2] is recorded as 0.69 fold.
On to `CN1CC(=O)N2[C@@H](Cc3ccc(Cl)cc3)C(=O)N(CCc3ccccc3)C[C@@H]2N1C(=O)NCc1ccccc1` [#39], for which, in assay [1], the fold induction at 20 µM came to 0.79. Also, in assay [2], the “Cardiomyogenesis: fold change” value is 0.29 fold.
`CCCCNC(=O)N1[C@H]2CN(CCCCc3ccccc3)C(=O)[C@H](Cc3ccc(O)cc3)N2C(=O)CN1Cc1cccc(F)c1` [#40]: the fold induction at 20 µM in assay [1] turned out to be 0.69. Moreover, the “Cardiomyogenesis: fold change” value in assay [2] was 1.11 fold.
The like results for `CCCCNC(=O)N1[C@H]2CN(CCCCc3ccccc3)C(=O)[C@H](C(C)CC)N2C(=O)CN1Cc1cccc(F)c1` (some centres unmarked) [#41] were, in that order, 0.6 and 2.15 fold.
`CCCCNC(=O)N1[C@H]2CN(CCCCc3ccccc3)C(=O)[C@H](CCC)N2C(=O)CN1Cc1cccc(F)c1` [#42]: the fold induction at 20 µM in assay [1] is 0.31. Further, the “Cardiomyogenesis: fold change” value in assay [2] is 1.87 fold.
In the same order, the values of `CCCCNC(=O)N1C2CN(CCCCc3ccccc3)C(=O)C(CC(=O)O)N2C(=O)CN1Cc1cccc(F)c1` (centres unmarked) [#43] are 0.33 and 1.17 fold.
With `CCCCNC(=O)N1[C@H]2CN(CCCCc3ccccc3)C(=O)[C@H](CCC(=O)O)N2C(=O)CN1Cc1cccc(F)c1` [#44], the fold induction at 20 µM in assay [1] was 0.56. In assay [2], the “Cardiomyogenesis: fold change” value came to 1.98 fold.
As for `CCCCNC(=O)N1[C@H]2CN([C@@H](C)c3ccccc3)C(=O)[C@H](CC(C)C)N2C(=O)CN1Cc1ccc(C)cc1` [#46], the fold induction at 20 µM in assay [1] was found to be 1.02. Further, the “Cardiomyogenesis: fold change” value in assay [2] turned out to be 1.90 fold.
On to `C#CCN1CC(=O)N2C(Cc3ccc(C)cc3)C(=O)N(CCCCCCC)C[C@@H]2N1C(=O)NCc1ccccc1` (some centres unmarked) [#51], for which the fold induction at 20 µM in assay [1] was 0.31. Further, the “Cardiomyogenesis: fold change” value in assay [2] was 0.49 fold.
The like results for `CC(C)[C@H]1C(=O)N(Cc2cccc(F)c2)C[C@H]2N1C(=O)CN(Cc1ccccc1)N2C(=O)NCc1ccccc1` [#55] were, in that order, 0.98 and 1.26 fold.
In the same order, the values of `CCC(C)[C@H]1C(=O)N(Cc2cccc(F)c2)C[C@H]2N1C(=O)CN(Cc1ccccc1)N2C(=O)NCc1ccccc1` (some centres unmarked) [#57] are 0.64 and 0.43 fold.
Turning to `CC(C)C[C@@H]1C(=O)N(Cc2cccc(C(F)(F)F)c2)C[C@@H]2N1C(=O)CN(Cc1ccc(F)cc1)N2C(=O)NCc1ccccc1` [#63], the fold induction at 20 µM in assay [1] was 0.41. In addition, the “Cardiomyogenesis: fold change” value in assay [2] amounted to 0.47 fold.
The like results for `O=C1[C@H](CCc2ccccc2)N2C(=O)CN(Cc3ccc(F)cc3)N(C(=O)NCc3ccccc3)[C@H]2CN1Cc1cccc(C(F)(F)F)c1` [#64] were, in that order, 0.79 and 2.83 fold.
The like results for `COc1ccc(C[C@H]2C(=O)N(Cc3cccc(C(F)(F)F)c3)C[C@H]3N2C(=O)CN(Cc2ccc(F)cc2)N3C(=O)NCc2ccccc2)cc1` [#65] were, in that order, 1.34 and 2.54 fold.
As to `Cc1ccc(C[C@H]2C(=O)N(Cc3cccc(C(F)(F)F)c3)C[C@H]3N2C(=O)CN(Cc2ccc(F)cc2)N3C(=O)NCc2ccccc2)cc1` [#67], in assay [1], the fold induction at 20 µM was 0.8. Besides, the “Cardiomyogenesis: fold change” value in assay [2] is on record as 1.50 fold.
The like results for `CC[C@H]1C(=O)N(Cc2cccc(C(F)(F)F)c2)C[C@H]2N1C(=O)CN(Cc1ccc(F)cc1)N2C(=O)NCc1ccccc1` [#68] were, in that order, 0.91 and 0.69 fold.
The like results for `O=C1[C@H](CC2CCCCC2)N2C(=O)CN(Cc3ccc(F)cc3)N(C(=O)NCc3ccccc3)[C@H]2CN1Cc1cccc(C(F)(F)F)c1` [#69] were, in that order, 0.71 and 1.69 fold.
The like results for `O=C1[C@H](Cc2ccc(F)cc2)N2C(=O)CN(Cc3ccc(F)cc3)N(C(=O)NCc3ccccc3)[C@H]2CN1Cc1cccc(C(F)(F)F)c1` [#70] were, in that order, 1.03 and 0.92 fold.
Turning to `O=C1[C@H](Cc2ccc(Cl)cc2)N2C(=O)CN(Cc3ccc(F)cc3)N(C(=O)NCc3ccccc3)[C@H]2CN1Cc1cccc(C(F)(F)F)c1` [#72], the fold induction at 20 µM in assay [1] was 0.84. Moreover, the “Cardiomyogenesis: fold change” value in assay [2] stood at 1.76 fold.
The like results for `O=C1[C@H](COCc2ccccc2)N2C(=O)CN(Cc3ccccc3)N(C(=O)NCc3ccccc3)[C@H]2CN1CCc1ccc(Cl)cc1` [#73] were, in that order, 0.64 and 1.57 fold.
The like results for `CC(C)C[C@@H]1C(=O)N(CCc2ccc(Cl)cc2)CC2N1C(=O)CN(Cc1ccccc1)N2C(=O)NCc1ccccc1` (some centres unmarked) [#74] were, in that order, 0.54 and 1.59 fold.

For the origin of these results see US20090215783A1, “COMPOSITION FOR INDUCTION OR INHIBITION OF STEM CELL DIFFERENTIATION” (CHOONGWAE PHARMA CORPORATION, priority 2006, published 2009).
